Source: patent US8506950B2, “Degradable microcapsules” (ETH Zurich, priority 2008, dated 2013)
Several values for one entry are separate records, joined by “and”; a condition that tells them apart may be missing. Identical values can stand only once.

Tests used:
rLHR = rLHR (Rattus norvegicus, UniProt P16235); test: PCRE controlled luciferase expression in HEK293T transiently transfected with rLHR; type: cell-based; design: Full-length cDNAs encoding the LHRs of rat (r) and bovine (b) origin; expressed in transfected cells; host or cells: HEK293T, transient transfection with pLEN-rLHR; conditions: 500 ng/ml bLH, 6 h post-induction, pLEN-rLHR + pCRE-Luc
rLHR, sequence (P16235 27-700): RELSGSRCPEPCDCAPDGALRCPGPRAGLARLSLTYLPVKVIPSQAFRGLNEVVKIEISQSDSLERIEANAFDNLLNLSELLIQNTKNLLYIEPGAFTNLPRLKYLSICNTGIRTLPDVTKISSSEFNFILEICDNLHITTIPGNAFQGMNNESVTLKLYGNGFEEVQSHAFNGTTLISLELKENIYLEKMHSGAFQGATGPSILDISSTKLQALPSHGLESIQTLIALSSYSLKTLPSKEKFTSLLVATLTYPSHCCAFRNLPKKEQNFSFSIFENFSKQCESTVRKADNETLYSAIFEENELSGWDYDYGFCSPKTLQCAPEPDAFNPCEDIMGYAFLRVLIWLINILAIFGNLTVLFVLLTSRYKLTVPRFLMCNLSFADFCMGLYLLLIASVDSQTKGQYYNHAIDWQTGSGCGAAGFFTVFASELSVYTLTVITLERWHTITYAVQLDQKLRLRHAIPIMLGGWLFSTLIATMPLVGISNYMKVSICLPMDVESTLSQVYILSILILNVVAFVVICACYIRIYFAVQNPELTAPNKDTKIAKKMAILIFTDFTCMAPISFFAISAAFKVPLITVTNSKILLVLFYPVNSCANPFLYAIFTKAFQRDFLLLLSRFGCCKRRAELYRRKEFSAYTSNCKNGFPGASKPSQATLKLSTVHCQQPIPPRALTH
Description: HEK293T cells were transiently transfected for rLHR and PCRE controlled luciferase expression. 24 hours after transfection the cells were transferred to a 96-well plate, cultured for 12 h and induced by the addition of 500 ng/ml bLH. The luciferase expression was measured 6 h post-induction. […] Luciferase expression was expressed as relative light units (RLU).
Functional expression of LHRs on the cell surface results in the stimulation of PKA and an increase of intracellular cAMP in response to bLH. It was evaluated whether the activated LHR-signaling may induce a PKA-responsive promoter. […] 24 hours post-transfection the cells were induced by bLH and the SEAP expression was determined over time. […] In comparing rLHR- and bLHR-expressing cells a 3-fold increase in maximal SEAP expression in response to bLH of the rLHR over the bLHR was detected. […]
The intracellular cAMP production of cells was quantified using the cAMP Fluorescence Polarization (FP) Biotrak Immunoassay System (GE Healthcare Bio-Sciences GmbH, Otelfingen, Switzerland, Cat No. RPN3595) according to the manufacturer's protocol. The expression of firefly luciferase was determined with the Tropix Luciferase Assay Kit (Applied Biosystems, Bedford, USA, Cat No. BC100L). […] Enhanced YFP-expression was detected by fluorescence microscopy (Leica Microsystems, Wetzlar, Germany)

[1] = biological target: T1, bovine luteinizing hormone receptor (bLHR) (Bos taurus, UniProt Q28005); test: Intracellular cAMP in HEK293T cells transiently expressing bLHR, induced by bLH; type: cell-based; conditions: 500 ng/ml bLH, 1 h post-induction, bLHR expressed, vs non-induced cells
T1 construct: Full-length cDNAs encoding the LHRs of rat (r) and bovine (b) origin; expressed in transfected cells; host or cells: HEK293T, transient transfection with pcDNA3.1-bLHR
T1 sequence (Q28005 27-701): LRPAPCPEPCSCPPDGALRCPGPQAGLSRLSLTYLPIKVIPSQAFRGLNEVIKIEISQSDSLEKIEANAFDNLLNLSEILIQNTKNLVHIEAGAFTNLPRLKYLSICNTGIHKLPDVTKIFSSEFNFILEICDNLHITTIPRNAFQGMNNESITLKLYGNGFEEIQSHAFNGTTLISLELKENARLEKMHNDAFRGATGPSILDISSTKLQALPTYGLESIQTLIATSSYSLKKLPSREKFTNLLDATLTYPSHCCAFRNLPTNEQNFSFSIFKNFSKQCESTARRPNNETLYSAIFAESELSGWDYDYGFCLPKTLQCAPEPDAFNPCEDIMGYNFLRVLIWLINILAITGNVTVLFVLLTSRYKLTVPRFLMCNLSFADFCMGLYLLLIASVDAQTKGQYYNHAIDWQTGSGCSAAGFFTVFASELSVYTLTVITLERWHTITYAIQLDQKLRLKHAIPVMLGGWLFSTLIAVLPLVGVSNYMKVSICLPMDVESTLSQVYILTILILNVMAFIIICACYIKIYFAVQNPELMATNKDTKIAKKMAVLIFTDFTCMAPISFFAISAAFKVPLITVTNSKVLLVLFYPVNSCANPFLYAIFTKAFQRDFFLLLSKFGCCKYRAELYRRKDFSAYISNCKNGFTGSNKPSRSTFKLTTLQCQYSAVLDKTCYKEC
Description: HEK293T cells were transiently transfected for constitutive bLHR or rLHR expression. 48 hours post-transfection the cells were induced by the addition of 500 ng/ml bLH. The intracellular cAMP-levels were determined 1 h post-induction. […] (□) no bLH, (▪) 500 ng/mL bLH.
Full-length cDNAs encoding the LHRs of rat (r) and bovine (b) origin were cloned under control of the strong constitutive human cytomegalovirus promoter (PCMV) as previously described [Kawate N, Tamada H, Inaba T, Sawada T, Journal of Reproduction and Development 2002; 48:8; Ulaner G A, Chuang J, Lin W, Woodbury D, Myers R V, Moyle W R, J Endocrinol 1999; 163:289-97]. The expression vectors were transiently transfected into HEK293T cells. The functionality of the expressed LHRs was determined 48 hours post-transfection by assaying the intracellular cAMP increase in response to the presence of bLH (FIG. 7). […] However, when the rLHR was expressed the detected cAMP-level increased to 29-fold level of the non-induced cells. […]
The intracellular cAMP production of cells was quantified using the cAMP Fluorescence Polarization (FP) Biotrak Immunoassay System (GE Healthcare Bio-Sciences GmbH, Otelfingen, Switzerland, Cat No. RPN3595) according to the manufacturer's protocol. The expression of firefly luciferase was determined with the Tropix Luciferase Assay Kit (Applied Biosystems, Bedford, USA, Cat No. BC100L). […]

increase in luciferase expression (rLHR): 10 fold and 9.9±0.1 fold
increase in intracellular cAMP [1]: 12 fold
Substance: bovine luteinizing hormone [bLH]
